Where a SMILES comes first, the peptide text is derived from it. Bridges are numbered along the chain shown (N, C = ends). Where no end group is shown, it is not given here. [ ]: non-standard residue; d: D form. The star is where a group is joined. Biotin = O=C1N[C@H]2[C@H](CS[C@H]2CCCCC(=O)*)N1; Palmitoyl = CCCCCCCCCCCCCCCC(=O)*; Nle = CCCC[C@H](N)C(=O)O; Aib = CC(C)(N)C(=O)O
What was measured:
[1] = target: T1, hGLP-1R (Homo sapiens, UniProt P43220); test: hGLP-1R-mediated cAMP induction assay in CHO cell line; type: cell-based; details: for EC50 / GLP-1 Receptor Relative Potency: Table 3; for EC50: CHO hGLP1R cells; for GLP-1 Receptor Relative Potency: against native GLP-1;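 for all read-outs here: CHO cells expressing human GLP-1R, treated 30 min at 37 °C, intracellular cAMP measured by competitive fluorescent immunoassay and converted via a cAMP standard curve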
T1 construct: expressed in transfected cells; host or cells: CHO
Source text: (§1) The cAMP in the sample or standard competes with horseradish peroxidase (HRP)-labeled cAMP conjugate for binding sites on the anti-cAMP antibodies. In the absence of cAMP, most of the HRP-cAMP conjugate is bound to the antibody. Increasing concentrations of cAMP competitively decrease the amount of bound conjugate, thus decreasing measured HRP activity.
(§2) Assay kit: CatchPoint™ Cyclic-AMP Fluorescent Assay Kit (Molecular Devices, Product # R8088)
Cell lines: CHO hGLP1R, CHO hGIPR
(§3) Cell seeding: CHO hGLP1R or CHO hGIPR cells: 10,000 cells/well/100 uL at 37° C. 5% CO2 overnight.
(§4) Gently aspirate off media and wash the cells with KRBG Buffer, 100 uL/well.
(§5) Incubate the plate for 10 min at room temperature. Then add the KRBG buffer with 3× final concentration of the tested samples (5-foled series diluted from 5,000 nM), 50 uL/well. Incubate the plate at 37° C. 5% CO2 for 30 min.
(§6) Add 50 uL of Lysis buffer to each well and put the plate on a shaker for 10 min.
(§7) Place 40 uL of samples and analyze in appropriate wells. And test the cAMP concentration in each sample by following the manufacture's instruction.
(§8) Detect the fluorescence signal at Ex: 490 nm and Em: 530 nm. Transfer the FI signal to cAMP concentration by the cAMP standard curve. The Dose-response curve and EC50 were obtained by logistic fitting of Origin 8.

[2] = target: T2, hGIPR (Homo sapiens, UniProt P48546); test: hGIPR-mediated cAMP induction assay in CHO cell line; type: cell-based; details: for EC50 / GIP Receptor Relative Potency: Table 3; for EC50: CHO hGIPR cells; for GIP Receptor Relative Potency: against native GIP
T2 construct: expressed in transfected cells; host or cells: CHO
T2 sequence (P48546 22-466): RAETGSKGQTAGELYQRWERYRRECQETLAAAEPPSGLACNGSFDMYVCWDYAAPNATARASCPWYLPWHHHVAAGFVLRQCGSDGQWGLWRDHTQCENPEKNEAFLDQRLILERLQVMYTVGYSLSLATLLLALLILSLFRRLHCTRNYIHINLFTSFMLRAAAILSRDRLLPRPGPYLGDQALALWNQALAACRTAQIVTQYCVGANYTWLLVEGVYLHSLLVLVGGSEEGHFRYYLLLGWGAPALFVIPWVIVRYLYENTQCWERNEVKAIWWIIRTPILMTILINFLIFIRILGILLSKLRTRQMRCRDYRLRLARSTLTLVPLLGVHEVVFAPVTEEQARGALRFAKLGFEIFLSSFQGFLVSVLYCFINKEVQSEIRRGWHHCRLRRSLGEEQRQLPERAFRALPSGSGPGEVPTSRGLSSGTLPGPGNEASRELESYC
Source text: as §1, §2
Cell lines: CHO hGLP1R, CHO hGIPR
as §3, §4, §5, §6, §7, §8

T1 sequence (P43220 24-463): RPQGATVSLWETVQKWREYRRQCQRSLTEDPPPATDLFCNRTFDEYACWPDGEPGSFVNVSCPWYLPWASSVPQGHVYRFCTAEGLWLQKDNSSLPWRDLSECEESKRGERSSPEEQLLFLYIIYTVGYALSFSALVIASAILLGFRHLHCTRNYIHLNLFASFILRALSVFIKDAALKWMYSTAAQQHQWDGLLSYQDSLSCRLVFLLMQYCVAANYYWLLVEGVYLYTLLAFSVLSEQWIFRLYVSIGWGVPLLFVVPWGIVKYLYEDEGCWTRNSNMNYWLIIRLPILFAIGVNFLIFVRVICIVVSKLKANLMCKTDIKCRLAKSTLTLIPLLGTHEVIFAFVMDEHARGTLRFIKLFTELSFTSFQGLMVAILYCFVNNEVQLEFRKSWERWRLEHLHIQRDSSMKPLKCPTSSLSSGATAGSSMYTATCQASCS

Row | Molecule | EC50 [1] [nM] | GLP-1 Receptor Relative Potency [1] | EC50 [2] [nM] | GIP Receptor Relative Potency [2] | GLP-1R activation (GLP-1 activity) against native GLP-1 [1] | GIPR activation (GIP activity) against native GIP ([2]; CHO/hGIPR cell assay) [%]
1 | CC[C@H](C)[C@H](NC(=O)[C@H](Cc1ccccc1)NC(=O)[C@H](CCC(=O)O)NC(=O)[C@H](CCCNC(=N)N)NC(=O)[C@@H](NC(=O)[C@H](C)NC(=O)[C@H](CCC(=O)O)NC(=O)[C@H](CCCCN)NC(=O)[C@H](CCC(=O)O)NC(=O)[C@H](CCSC)NC(=O)[C@H](Cc1ccc(O)cc1)NC(=O)[C@@H](NC(=O)[C@H](CO)NC(=O)[C@H](Cc1ccc(O)cc1)NC(=O)[C@H](CC(=O)O)NC(=O)[C@H](CO)NC(=O)[C@@H](NC(=O)[C@H](Cc1ccccc1)NC(=O)[C@@H](NC(=O)CNC(=O)[C@H](CCC(=O)O)NC(=O)C(C)(C)NC(=O)[C@@H](N)Cc1ccc(O)cc1)[C@@H](C)O)[C@@H](C)O)[C@@H](C)CC)C(C)C)C(=O)N[C@@H](C)C(=O)N[C@@H](Cc1c[nH]c2ccccc12)C(=O)N[C@@H](CC(C)C)C(=O)N[C@H](C(=O)N[C@@H](CCCCN)C(=O)NCC(=O)NCC(=O)N1CCC[C@H]1C(=O)N[C@@H](CO)C(=O)N[C@@H](CO)C(=O)NCC(=O)N[C@@H](C)C(=O)N1CCC[C@H]1C(=O)N1CCC[C@H]1C(=O)N1CCC[C@H]1C(=O)N[C@@H](CO)C(=O)N[C@@H](CCCCNC(=O)CCCC[C@@H]1SC[C@@H]2NC(=O)N[C@@H]21)C(N)=O)C(C)C [Compound 074] | 1.05 | 90.7 | 0.43 | 39.5 |  | 
2 | H-Y[Aib]EGTFTSDYSIYMEKEAVREFIAWLVKGGPSSGAPPPSKKKKKK(Biotin)-NH2 [Compound 080] | 1.11 | 98.5 | 0.1 | 67 |  | 
3 | CC[C@H](C)[C@H](NC(=O)[C@H](Cc1ccccc1)NC(=O)[C@H](CCC(=O)O)NC(=O)[C@H](CCCNC(=N)N)NC(=O)[C@@H](NC(=O)[C@H](C)NC(=O)[C@H](CCC(=O)O)NC(=O)[C@H](CCCCN)NC(=O)[C@H](CCC(=O)O)NC(=O)[C@H](CCSC)NC(=O)[C@H](Cc1ccc(O)cc1)NC(=O)[C@@H](NC(=O)[C@H](CO)NC(=O)[C@H](Cc1ccc(O)cc1)NC(=O)[C@H](CC(=O)O)NC(=O)[C@H](CO)NC(=O)[C@@H](NC(=O)[C@H](Cc1ccccc1)NC(=O)[C@@H](NC(=O)CNC(=O)[C@H](CCC(=O)O)NC(=O)C(C)(C)NC(=O)[C@@H](N)Cc1ccc(O)cc1)[C@@H](C)O)[C@@H](C)O)[C@@H](C)CC)C(C)C)C(=O)N[C@@H](C)C(=O)N[C@@H](Cc1c[nH]c2ccccc12)C(=O)N[C@@H](CC(C)C)C(=O)N[C@H](C(=O)N[C@@H](CCCCN)C(=O)NCC(=O)NCC(=O)N1CCC[C@H]1C(=O)N[C@@H](CO)C(=O)N[C@@H](CO)C(=O)NCC(=O)N[C@@H](C)C(=O)N1CCC[C@H]1C(=O)N1CCC[C@H]1C(=O)N1CCC[C@H]1C(=O)N[C@@H](CO)C(N)=O)C(C)C [Compound 051] (H-Y[Aib]EGTFTSDYSIYMEKEAVREFIAWLVKGGPSSGAPPPS-NH2; N-terminus assumed) | 0.599 | 159.8 | 0.19 | 89.5 |  | 
4 | CCCCCCCCCCCCCCCC(=O)N[C@@H](CCC(=O)N[C@@H](CCC(=O)NCCCC[C@H](NC(=O)[C@H](CO)NC(=O)[C@@H]1CCCN1C(=O)[C@@H]1CCCN1C(=O)[C@@H]1CCCN1C(=O)[C@H](C)NC(=O)CNC(=O)[C@H](CO)NC(=O)[C@H](CO)NC(=O)[C@@H]1CCCN1C(=O)CNC(=O)CNC(=O)[C@H](CCCCN)NC(=O)[C@@H](NC(=O)[C@H](CC(C)C)NC(=O)[C@H](Cc1c[nH]c2ccccc12)NC(=O)[C@H](C)NC(=O)[C@@H](NC(=O)[C@H](Cc1ccccc1)NC(=O)[C@H](CCC(=O)O)NC(=O)[C@H](CCCNC(=N)N)NC(=O)[C@@H](NC(=O)[C@H](C)NC(=O)[C@H](CCC(=O)O)NC(=O)[C@H](CCCCN)NC(=O)[C@H](CCC(=O)O)NC(=O)[C@H](CCSC)NC(=O)[C@H](Cc1ccc(O)cc1)NC(=O)[C@@H](NC(=O)[C@H](CO)NC(=O)[C@H](Cc1ccc(O)cc1)NC(=O)[C@H](CC(=O)O)NC(=O)[C@H](CO)NC(=O)[C@@H](NC(=O)[C@H](Cc1ccccc1)NC(=O)[C@@H](NC(=O)CNC(=O)[C@H](CCC(=O)O)NC(=O)C(C)(C)NC(=O)[C@@H](N)Cc1ccc(O)cc1)[C@@H](C)O)[C@@H](C)O)[C@@H](C)CC)C(C)C)[C@@H](C)CC)C(C)C)C(N)=O)C(=O)O)C(=O)O [Compound 091] | 0.116 | 921.5 | 0.041 | 287.8 |  | 
5 | Tyr-Aib-Glu-Gly-Thr-Phe-Thr-Ser-Asp-Tyr-Ser-Ile-Tyr-Nle-Glu-Lys-Ile-His-Gln-Gln-Asp-Phe-Val-Asn-Trp-Leu-Val-Arg-Gln(NH2) (Y[Aib]EGTFTSDYSIY[Nle]EKIHQQDFVNWLVRQ-NH2) [Analog 021] |  |  |  |  | around 5% | 21
6 | CCCCCCCCCCCCCCCC(=O)NCCCC[C@H](NC(=O)[C@H](CO)NC(=O)[C@@H]1CCCN1C(=O)[C@@H]1CCCN1C(=O)[C@@H]1CCCN1C(=O)[C@H](C)NC(=O)CNC(=O)[C@H](CO)NC(=O)[C@H](CO)NC(=O)[C@@H]1CCCN1C(=O)CNC(=O)CNC(=O)[C@H](CCCCN)NC(=O)[C@@H](NC(=O)[C@H](CC(C)C)NC(=O)[C@H](Cc1c[nH]c2ccccc12)NC(=O)[C@H](C)NC(=O)[C@@H](NC(=O)[C@H](Cc1ccccc1)NC(=O)[C@H](CCC(=O)O)NC(=O)[C@H](CCCNC(=N)N)NC(=O)[C@@H](NC(=O)[C@H](C)NC(=O)[C@H](CCC(=O)O)NC(=O)[C@H](CCCCN)NC(=O)[C@H](CCC(=O)O)NC(=O)[C@H](CCSC)NC(=O)[C@H](Cc1ccc(O)cc1)NC(=O)[C@@H](NC(=O)[C@H](CO)NC(=O)[C@H](Cc1ccc(O)cc1)NC(=O)[C@H](CC(=O)O)NC(=O)[C@H](CO)NC(=O)[C@@H](NC(=O)[C@H](Cc1ccccc1)NC(=O)[C@@H](NC(=O)CNC(=O)[C@H](CCC(=O)O)NC(=O)C(C)(C)NC(=O)[C@@H](N)Cc1ccc(O)cc1)[C@@H](C)O)[C@@H](C)O)[C@@H](C)CC)C(C)C)[C@@H](C)CC)C(C)C)C(N)=O [Compound 068] | 0.169 | 566 | 0.037 | 38.9 |  | 
7 | CCCCCCCCCCCCCCCC(=O)NCCCC[C@H](NC(=O)[C@H](CO)NC(=O)[C@@H]1CCCN1C(=O)[C@@H]1CCCN1C(=O)[C@@H]1CCCN1C(=O)[C@H](C)NC(=O)CNC(=O)[C@H](CO)NC(=O)[C@H](CO)NC(=O)[C@@H]1CCCN1C(=O)CNC(=O)CNC(=O)[C@H](CCCCN)NC(=O)[C@@H](NC(=O)[C@H](CC(C)C)NC(=O)[C@H](Cc1c[nH]c2ccccc12)NC(=O)[C@@H]1CCC(=O)NCCCC[C@H](NC(=O)[C@@H](NC(=O)[C@H](C)NC(=O)[C@H](CCC(=O)O)NC(=O)[C@H](CCCCN)NC(=O)[C@H](CCC(=O)O)NC(=O)[C@H](CCSC)NC(=O)[C@H](Cc2ccc(O)cc2)NC(=O)[C@@H](NC(=O)[C@H](CO)NC(=O)[C@H](Cc2ccc(O)cc2)NC(=O)[C@H](CC(=O)O)NC(=O)[C@H](CO)NC(=O)[C@@H](NC(=O)[C@H](Cc2ccccc2)NC(=O)[C@@H](NC(=O)CNC(=O)[C@H](CCC(=O)O)NC(=O)C(C)(C)NC(=O)[C@@H](N)Cc2ccc(O)cc2)[C@@H](C)O)[C@@H](C)O)[C@@H](C)CC)C(C)C)C(=O)N[C@@H](CCC(=O)O)C(=O)N[C@@H](Cc2ccccc2)C(=O)N[C@@H]([C@@H](C)CC)C(=O)N1)C(C)C)C(N)=O [Compound 101] (H-Y[Aib]EGTFTSDYSIYMEKEAVKEFIEWLVKGGPSSGAPPPSK(Palmitoyl)-NH2; lactam 20-24) | 0.056 | 628.6 | 0.021 | 328.6 |  | 
8 | CCCCCCCCCCCCCCCC(=O)NCCCC[C@H](NC(=O)[C@H](CO)NC(=O)[C@@H]1CCCN1C(=O)[C@@H]1CCCN1C(=O)[C@@H]1CCCN1C(=O)[C@H](C)NC(=O)CNC(=O)[C@H](CO)NC(=O)[C@H](CO)NC(=O)[C@@H]1CCCN1C(=O)CNC(=O)CNC(=O)[C@@H]1CCCCNC(=O)CC[C@H](NC(=O)[C@@H](NC(=O)[C@H](Cc2ccccc2)NC(=O)[C@H](CCC(=O)O)NC(=O)[C@H](CCCCN)NC(=O)[C@@H](NC(=O)[C@H](C)NC(=O)[C@H](CCC(=O)O)NC(=O)[C@H](CCCCN)NC(=O)[C@H](CCC(=O)O)NC(=O)[C@H](CCSC)NC(=O)[C@H](Cc2ccc(O)cc2)NC(=O)[C@@H](NC(=O)[C@H](CO)NC(=O)[C@H](Cc2ccc(O)cc2)NC(=O)[C@H](CC(=O)O)NC(=O)[C@H](CO)NC(=O)[C@@H](NC(=O)[C@H](Cc2ccccc2)NC(=O)[C@@H](NC(=O)CNC(=O)[C@H](CCC(=O)O)NC(=O)C(C)(C)NC(=O)[C@@H](N)Cc2ccc(O)cc2)[C@@H](C)O)[C@@H](C)O)[C@@H](C)CC)C(C)C)[C@@H](C)CC)C(=O)N[C@@H](Cc2c[nH]c3ccccc23)C(=O)N[C@@H](CC(C)C)C(=O)N[C@@H](C(C)C)C(=O)N1)C(N)=O [Compound 102] (H-Y[Aib]EGTFTSDYSIYMEKEAVKEFIEWLVKGGPSSGAPPPSK(Palmitoyl)-NH2; lactam 24-28; N-terminus assumed) | 0.069 | 510.1 | 0.015 | 460 |  | 

Reference: patent US9453062B2, “Glucose dependent insulinotropic polypeptide analogs, pharmaceutical compositions and use thereof” (Beijing Hanmi Pharmaceutical Co., Ltd., priority 2011, dated 2016)
